From patent US10745399B2 (priority 2015, dated 2020)
pIC50: −log10 of the molar value.

Target: mTOR (human) (Homo sapiens (Human), UniProt P42345)
Experiment: mTOR (human) radiometric kinase assay
Format: biochemical
Conditions: IC50 (ATM) at least 2000 times higher compared with IC50 (mTOR)
Procedure: mTOR (human) was incubated with 50 mM HEPES pH 7.5, 1 mM EGTA, 0.01% Tween 20, 2 mg/ml of the substrate, 3 mM MnCl2 and [γ-^33P-ATP] (specific activity approximately 500 cpm/pmol, concentration as necessary). The reaction was initiated by addition of MgATP solution. After incubation at room temperature for 40 minutes, the reaction was stopped by addition of 3% phosphoric acid. 10 μl of the reaction solution were then transferred dropwise onto a P30 filtermat and washed three times for 5 min in 75 mM phosphoric acid and once in methanol, dried and evaluated by means of liquid scintillation counting.

| Compound | ratio IC50 (ATM):IC50(mTOR), selectivity with respect to mTOR |
| --- | --- |
| COc1cc2ncc3c(c2cc1-c1cnn(C)c1)n(-c1ncc(OC(F)F)cc1F)c(=O)n3C [compound 114, 1-(5-Difluoromethoxy-3-fluoropyridin-2-yl)-7-methoxy-3-methyl-8-(1-methyl-1H-pyrazol-4-yl)-1,3-dihydroimidazo[4,5-c]-quinolin-2-one] | at least 2000 times |
| COc1cc2ncc3c(c2cc1-c1cnn(C)c1)n(-c1cc2[nH]ccc2cn1)c(=O)n3C [compound 120, 7-Methoxy-3-methyl-8-(1-methyl-1H-pyrazol-4-yl)-1-(1H-pyrrolo[3,2-c]pyridin-6-yl)-1,3-dihydroimidazo-[4,5-c]quinolin-2-one] | at least 2000 times |
| COc1cc2ncc3c(c2cc1-c1cc[nH]n1)n(-c1cn(C)nc1C)c(=O)n3C [compound 121, 1-(1,3-Dimethyl-1H-pyrazol-4-yl)-7-methoxy-3-methyl-8-(1H-pyrazol-3-yl)-1,3-dihydroimidazo[4,5-c]-quinolin-2-one] | at least 2000 times |

System: CHK2 phosphorylation (phospho-Thr68) in HCT116 cells
Experiment: Cellular pCHK2 assay, bleomycin-induced phosphorylation of CHK2 (phospho-Thr68), immunofluorescence high content
Format: cell-based
Conditions: Homo sapiens, HCT-116; HCT116 cells, 10 μM bleomycin, 4 h; read-out: IC50 (pCHK2)
Source text: For the identification of substances which inhibit the phosphorylation of the protein kinase CHK2 at the amino acid threonine 68, an immunofluorescence-based “high content” analysis assay was used in HCT116 cells.
In vitro cell-based immunofluorescence assay for the identification of inhibitors of bleomycin-induced phosphorylation of CHK2 (phospho-Thr68) in the human colon carcinoma cell line HCT116:
HCT116 cells are sown out in a defined cell density in 384-well plates in culture medium (DMEM high glucose, 2 mM GlutaMax, 1 mM Na pyruvate, 10% FCS) and incubated overnight at 37° C. and 10% of CO2. On the following day, the test substances are added in a defined concentration range (1 nM to 30 μM) in combination with 10 μM bleomycin, where the concentration of the solvent DMSO is kept constant at 0.5%. After incubation for four hours at 37° C. and 10% of CO2, the cells are fixed (5 min, 4% formaldehyde in PBS), permeabilised (10 min, 0.2% Triton X-100 in PBS) and, after blocking of nonspecific binding sites (10% goat serum, 1% BSA in PBS), incubated overnight at 4° C. with a specific anti-pCHK2 antibody (cell signalling #2661). pCHK2 (Thr68) is determined using an Alexa488-labelled secondary anti-rabbit IgG antibody. Parallel staining of DNA with propidium iodide enables determination of the cell count. The pCHK2 signal is detected using a high-content imager (Molecular Devices IMX Ultra) and automatic image analysis using the MetaXpress software belonging to the instrument. The number of cell nuclei which have a pCHK2 signal above a defined background is determined.

| Compound | pIC50 |
| --- | --- |
| COc1cnc(-n2c(=O)n(C)c3cnc4cc(OC)c(-c5cn(C)nn5)cc4c32)c(F)c1 [compound 133, 1-(3-Fluoro-5-methoxy-pyridin-2-yl)-7-methoxy-3-methyl-8-(1-methyl-1H-1,2,3-triazol-4-yl)-1,3-dihydroimidazo[4,5-c] quinolin-2-one] | 6.00 to 6.70 |
| COc1cc2ncc3c(c2cc1-c1cnn[nH]1)n(-c1c(F)cncc1OC)c(=O)n3C [compound 134, 1-(3-Fluoro-5-methoxy-pyridin-4-yl)-7-methoxy-3-methyl-8-(3H-1,2,3-triazol-4-yl)-1,3-dihydroimidazo-[4,5-c]quinolin-2-one] | 6.00 to 6.70 |
| CCn1cc(-n2c(=O)n(C)c3cnc4cc(OC)c(-c5cn(C)nc5C)cc4c32)c(C)n1 [compound 135, 8-(1,3-Dimethyl-1H-pyrazol-4-yl)-1-(1-ethyl-3-methyl-1H-pyrazol-4-yl)-7-methoxy-3-methyl-1,3-dihydro-imidazo[4,5-c]quinolin-2-one] | 6.00 to 6.70 |
| CNC(=O)c1cnc(-n2c(=O)n(C)c3cnc4cc(OC)c(-c5cn(C)nc5C)cc4c32)c(F)c1 [compound 139, 6-[8-(1,3-Dimethyl-1H-pyrazol-4-yl)-7-methoxy-3-methyl-2-oxo-2,3-dihydro-imidazo[4,5-c]quinolin-1-yl]-5-fluoro-N-methyl-nicotinamid] | 6.00 to 6.70 |
| CCn1cc(-c2cc3c(cc2OC)ncc2c3n(-c3c(F)cncc3OC)c(=O)n2C)c(C)n1 [compound 142, 8-(1-Ethyl-3-methyl-1H-pyrazol-4-yl)-1-(3-fluoro-5-methoxypyridin-4-yl)-7-methoxy-3-methyl-1,3-dihydroimidazo[4,5-c] quinolin-2-one] | 6.00 to 6.70 |
| COc1cc2ncc3c(c2cc1-c1cnn(C(F)F)c1)n(-c1c(F)cncc1OC)c(=O)n3C [compound 143, 8-(1-Difluoromethyl-1H-pyrazol-4-yl)-1-(3-fluoro-5-methoxypyridin-4-yl)-7-methoxy-3-methyl-1,3-dihydroimidazo[4,5-c] quinolin-2-one] | 6.00 to 6.70 |
| COc1cnc(-n2c(=O)n(C)c3cnc4cc(OC)c(-c5ccc6nc(C)[nH]c6c5)cc4c32)c(F)c1 [compound 144, 1-(3-Fluoro-5-methoxy-pyridin-2-yl)-7-methoxy-3-methyl-8-(2-methyl-3H-benzoimidazol-5-yl)-1,3-dihydroimidazo[4,5-c]-quinolin-2-one] | 6.00 to 6.70 |
| COc1cc2ncc3c(c2cc1-c1cnn(C)c1)n(-c1c(F)cncc1OC(F)F)c(=O)n3C [compound 146, 1-(3-Difluoromethoxy-5-fluoropyridin-4-yl)-7-methoxy-3-methyl-8-(1-methyl-1H-pyrazol-4-yl)-1,3-dihydroimidazo[4,5-c]-quinolin-2-one] | > 6.70 |
| COc1cc2ncc3c(c2cc1-c1cnn(C)c1)n(-c1c(F)cncc1OCF)c(=O)n3C [compound 148] | > 6.70 |
| [2H]C([2H])([2H])Oc1cncc(F)c1-n1c(=O)n(C)c2cnc3cc(OC)c(-c4cn(C)nc4C)cc3c21 [compound 150, 8-(1,3-Dimethylpyrazol-4-yl)-1-[3-fluoro-5-(trideuterio-methoxy)-4-pyridyl]-7-methoxy-3-methyl-imidazo-[4,5-c]quinolin-2-one] | > 6.70 |
| COc1cc2ncc3c(c2cc1-c1n[nH]cc1C)n(-c1cn(C)nc1C)c(=O)n3C [compound 151, 1-(1,3-Dimethyl-1H-pyrazol-4-yl)-7-methoxy-3-methyl-8-(4-methyl-1H-pyrazol-3-yl)-1,3-dihydroimidazo[4,5-c] quinolin-2-one] | > 6.70 |
| COc1cc2ncc3c(c2cc1-c1cnc2nc(C)[nH]c2c1)n(-c1c(F)cncc1OC)c(=O)n3C [compound 152, 1-(3-Fluoro-5-methoxy-pyridin-4-yl)-7-methoxy-3-methyl-8-(2-methyl-1H-imidazo[4,5-b]pyridin-6-yl)-1,3-dihydroimidazo[4,5-c]-quinolin-2-one] | > 6.70 |
| COc1cnc(-n2c(=O)n(C)c3cnc4cc(OC)c(-c5ccc6nc[nH]c6c5)cc4c32)c(F)c1 [compound 153, 8-(3H-Benzimidazol-5-yl)-1-(3-fluoro-5-methoxypyridin-2-yl)-7-methoxy-3-methyl-1,3-dihydroimidazo[4,5-c]-quinolin-2-one] | 6.00 to 6.70 |
| COc1cc2ncc3c(c2cc1-c1cnc2nc(C)[nH]c2c1)n(-c1cn(C)nc1C)c(=O)n3C [compound 154, 1-(1,3-Dimethyl-1H-pyrazol-4-yl)-7-methoxy-3-methyl-8-(2-methyl-1H-imidazo[4,5-b]pyridin-6-yl)-1,3-dihydro-imidazo[4,5-c]quinolin-2-one] | 5.70 to 6.00 |
| CCc1cnccc1-n1c(=O)n(C)c2cnc3cc(OC)c(-c4cnn(C)c4)cc3c21 [compound 156, 1-(3-Ethylpyridin-4-yl)-7-methoxy-3-methyl-8-(1-methyl-1H-pyrazol-4-yl)-1,3-dihydroimidazo[4,5-c] quinolin-2-one] | 6.00 to 6.70 |
| COc1cc2ncc3c(c2cc1-c1cnn(C)n1)n(-c1ncccc1F)c(=O)n3C [compound 158, 1-(3-Fluoropyridin-2-yl)-7-methoxy-3-methyl-8-(2-methyl-2H-1,2,3-triazol-4-yl)-1,3-dihydroimidazo-[4,5-c]quinolin-2-one] | 6.00 to 6.70 |
| COc1cc2ncc3c(c2cc1-c1cnn(C)c1)n(-c1ccncc1C1CC1)c(=O)n3C [compound 200, 1-(3-Cyclopropylpyridin-4-yl)-7-methoxy-3-methyl-8-(1-methyl-1H-pyrazol-4-yl)-1,3-dihydroimidazo[4,5-c] quinolin-2-one] | 6.00 to 6.70 |
| COc1cc2ncc3c(c2cc1-c1cnn(C)c1)n(-c1c(F)cncc1C1CC1)c(=O)n3C [compound 202, 1-(3-Cyclopropyl-5-fluoro-pyridin-4-yl)-7-methoxy-3-methyl-8-(1-methyl-1H-pyrazol-4-yl)-1,3-dihydro-imidazo[4,5-c]quinolin-2-one] | 6.00 to 6.70 |
| COc1cc2ncc3c(c2cc1-c1cn(C)nc1C)n(-c1ncc(OCS(C)(=O)=O)cc1F)c(=O)n3C [compound 203, 8-(1,3-Dimethyl-1H-pyrazol-4-yl)-1-(3-fluoro-5-methyl-sulfonylmethoxypyridin-2-yl)-7-methoxy-3-methyl-1,3-dihydroimidazo[4,5-c]-quinolin-2-one] | 6.00 to 6.70 |
| C=CCOc1cnc(-n2c(=O)n(C)c3cnc4cc(OC)c(-c5cnn(C)c5)cc4c32)c(F)c1 [compound 204, 1-(5-Allyloxy-3-fluoropyridin-2-yl)-7-methoxy-3-methyl-8-(1-methyl-1H-pyrazol-4-yl)-1,3-dihydroimidazo[4,5-c]-quinolin-2-one] | 6.00 to 6.70 |
| CNCCOc1cnc(-n2c(=O)n(C)c3cnc4cc(OC)c(-c5cnn(C)c5)cc4c32)c(F)c1 [compound 206] | 6.00 to 6.70 |
| COc1cc2ncc3c(c2cc1-c1cnn(C)c1)n(-c1ncc(OCC2CN(C)C2)cc1F)c(=O)n3C [compound 207, 1-[3-Fluoro-5-(1-methyl-azetidin-3-ylmethoxy)-pyridin-2-yl]-7-methoxy-3-methyl-8-(1-methyl-1H-pyrazol-4-yl)-1,3-dihydro-imidazo[4,5-c]quinolin-2-one] | 6.00 to 6.70 |
| COc1cc2ncc3c(c2cc1-c1cnn(C2CNC2)c1)n(-c1c(F)cncc1OC)c(=O)n3C [compound 208, 8-[1-(Azetidin-3-yl)-1H-pyrazol-4-yl]-1-(3-fluoro-5-methoxypyridin-4-yl)-7-methoxy-3-methyl-1H,2H,3H-imidazo[4,5-c]-quinolin-2-one] | 5.70 to 6.00 |
